pIC50: −log10 of the molar value.
Molecular target: TRKA (Homo sapiens (Human), UniProt P04629)
Assay: Isolated TRK enzyme assay (HTRF KinEASE-TK), PV3144 TrkA enzyme assay
Format: biochemical
Conditions: arithmetic mean where more than one reading
How it was run: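 His-tagged TrkA cytoplasmic domain preactivated with ATP 20 min, then with compound 20 min at room temperature before 1 µM final biotin-TK substrate; HTRF 665/620 nm read.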

Sequence of TRKA (P04629 441-796): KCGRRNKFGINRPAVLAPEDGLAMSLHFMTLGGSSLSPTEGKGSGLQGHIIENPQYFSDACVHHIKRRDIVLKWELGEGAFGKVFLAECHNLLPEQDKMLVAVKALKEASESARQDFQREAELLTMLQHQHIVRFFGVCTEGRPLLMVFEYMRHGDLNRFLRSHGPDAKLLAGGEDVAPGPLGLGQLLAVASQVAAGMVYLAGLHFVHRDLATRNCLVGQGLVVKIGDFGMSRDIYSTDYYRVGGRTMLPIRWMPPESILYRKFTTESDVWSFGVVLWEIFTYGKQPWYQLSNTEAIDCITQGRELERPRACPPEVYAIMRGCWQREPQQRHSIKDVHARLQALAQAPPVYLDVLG

| Compound | pIC50 |
| --- | --- |
| COCc1nc(CC(=O)Nc2cncc(C(=O)c3cn(C(C)C)c4ccncc34)c2)c(C2CC2)o1 [Example 39, 2-[5-cyclopropyl-2-(methoxymethyl)-1,3-oxazol-4-yl]-N-(5-{[1-(propan-2-yl)-1H-pyrrolo[3,2-c]pyridin-3-yl]carbonyl}pyridin-3-yl)acetamide] | 6.74 |
| CC(C)n1cc(C(=O)c2ccnc(NC(=O)Cc3ccccc3OC(F)(F)F)c2)c2cnccc21 [Example 182, N-(4-{[1-(propan-2-yl)-1H-pyrrolo[3,2-c]pyridin-3-yl]carbonyl}pyridin-2-yl)-2-[2-(trifluoromethoxy)phenyl]acetamide] | 7.58 |
| N-(5-{[7-fluoro-1-(1-hydroxypropan-2-yl)-1H-pyrrolo[3,2-c]pyridin-3-yl]carbonyl}pyridin-3-yl)-2-[4-(trifluoromethyl)phenyl]acetamide [Example 209] | 6.58 |
| Cc1ccnn1CC(=O)Nc1cc(C(=O)c2cn(CCO)c3ccncc23)ccn1 [Example 155, N-(4-{[1-(2-hydroxyethyl)-1H-pyrrolo[3,2-c]pyridin-3-yl]carbonyl}pyridin-2-yl)-2-(5-methyl-1H-pyrazol-1-yl)acetamide] | 5.62 |
| Cc1nc(C)n(CC(=O)Nc2cncc(C(=O)c3cn(C(C)C)c4ccncc34)c2)n1 [Example 137, 2-(3,5-dimethyl-1H-1,2,4-triazol-1-yl)-N-(5-{[1-(propan-2-yl)-1H-pyrrolo[3,2-c]pyridin-3-yl]carbonyl}pyridin-3-yl)acetamide] | 5.01 |
| CC(CO)n1cc(C(=O)c2cncc(NC(=O)Cn3cc(C4CC4)nn3)c2)c2cncc(F)c21 (single isomer, unassigned) [Example 207, 2-(4-cyclopropyl-1H-1,2,3-triazol-1-yl)-N-(5-{[7-fluoro-1-(1-hydroxypropan-2-yl)-1H-pyrrolo[3,2-c]pyridin-3-yl]carbonyl}pyridin-3-yl)acetamide] | 6.75 |
| CC(C)n1ncc(CC(=O)Nc2cncc(C(=O)c3cn(C(C)CO)c4ccncc34)c2)c1C(F)(F)F (single isomer, unassigned) [Example 64, N-(5-{[1-(1-hydroxypropan-2-yl)-1H-pyrrolo[3,2-c]pyridin-3-yl]carbonyl}pyridin-3-yl)-2-[1-(propan-2-yl)-5-(trifluoromethyl)-1H-pyrazol-4-yl]acetamide] | 6.98 |
| Cn1nc(C(C)(C)C)nc1CC(=O)Nc1cc(C(=O)c2cn(CCO)c3ccncc23)ccn1 [Example 154, 2-(3-tert-butyl-1-methyl-1H-1,2,4-triazol-5-yl)-N-(4-{[1-(2-hydroxyethyl)-1H-pyrrolo[3,2-c]pyridin-3-yl]carbonyl}pyridin-2-yl)acetamide] | 5.96 |
| CC(C)(CO)n1cc(C(=O)c2cc(NC(=O)Cc3ccc(C#N)cc3)ccn2)c2cnccc21 [Example 9, 2-(4-cyanophenyl)-N-(2-{[1-(1-hydroxy-2-methylpropan-2-yl)-1H-pyrrolo[3,2-c]pyridin-3-yl]carbonyl}pyridin-4-yl)acetamide] | 7.01 |
| CC(C)n1ncc(CC(=O)Nc2cc(C(=O)c3cn(CCO)c4ccncc34)ccn2)c1C(F)(F)F [Example 157, N-(4-{[1-(2-hydroxyethyl)-1H-pyrrolo[3,2-c]pyridin-3-yl]carbonyl}pyridin-2-yl)-2-[1-(propan-2-yl)-5-(trifluoromethyl)-1H-pyrazol-4-yl]acetamide] | 6.38 |
| CC(CO)n1cc(C(=O)c2cncc(NC(=O)Cn3ccc(C(F)(F)F)n3)c2)c2cnccc21 (stereo not shown) [Example 60, N-(5-{[1-(1-hydroxypropan-2-yl)-1H-pyrrolo[3,2-c]pyridin-3-yl]carbonyl}pyridin-3-yl)-2-[3-(trifluoromethyl)-1H-pyrazol-1-yl]acetamide] | 7.35 |
| CC(CO)n1cc(C(=O)c2cncc(NC(=O)Cc3ccc(C#N)cc3)c2)c2cnccc21 (stereo not shown) [Example 67] | 7.00 |
| O=C(Cc1nc(C2CC2)oc1C1CC1)Nc1cc(C(=O)c2cn(C3COC3)c3ccncc23)ccn1 [Example 202, 2-(2,5-dicyclopropyl-1,3-oxazol-4-yl)-N-(4-{[1-(oxetan-3-yl)-1H-pyrrolo[3,2-c]pyridin-3-yl]carbonyl}pyridin-2-yl)acetamide] | 6.36 |

Further lines, results first:

| pIC50 | Compound |
| --- | --- |
| 7.44 | CC(CO)n1cc(C(=O)c2cc(NC(=O)Cc3cccc(C(F)(F)F)c3)ccn2)c2cnccc21 (single isomer, unassigned) [Example 18, 2-(3-trifluoromethylphenyl)-N-(2-{[1-(1-hydroxypropan-2-yl)-1H-pyrrolo[3,2-c]pyridin-3-yl]carbonyl}pyridin-4-yl)acetamide] |
| 6.32 | CC(CO)n1cc(C(=O)c2cncc(NC(=O)Cc3ccc(F)cn3)c2)c2cncc(F)c21 (single isomer, unassigned) [Example 212, N-(5-{[7-fluoro-1-(1-hydroxypropan-2-yl)-1H-pyrrolo[3,2-c]pyridin-3-yl]carbonyl}pyridin-3-yl)-2-(5-fluoropyridin-2-yl)acetamide] |
| 5.01 | CC(C)n1cc(C(=O)c2ccnc(NC(=O)Cc3nnnn3C)c2)c2cnccc21 [Example 192, 2-(1-methyl-1H-tetrazol-5-yl)-N-(4-{[1-(propan-2-yl)-1H-pyrrolo[3,2-c]pyridin-3-yl]carbonyl}pyridin-2-yl)acetamide] |
| 8.54 | CC(C)(CO)n1cc(C(=O)c2cncc(NC(=O)Cc3cccc(C(F)(F)F)c3)c2)c2cnccc21 [Example 235, N-(5-{[1-(1-hydroxy-2-methylpropan-2-yl)-1H-pyrrolo[3,2-c]pyridin-3-yl]carbonyl}pyridin-3-yl)-2-[3-(trifluoromethyl)phenyl]acetamide] |
| 7.85 | CC(C)(CO)n1cc(C(=O)c2cc(NC(=O)Cn3ccc(C(F)(F)F)n3)ccn2)c2cnccc21 [Example 10, N-(2-{[1-(1-hydroxy-2-methylpropan-2-yl)-1H-pyrrolo[3,2-c]pyridin-3-yl]carbonyl}pyridin-4-yl)-2-[3-(trifluoromethyl)-1H-pyrazol-1-yl]acetamide] |
| 5.19 | CC(C)n1cc(C(=O)c2ccnc(NC(=O)Cn3cnnn3)c2)c2cnccc21 [Example 170, N-(4-{[1-(propan-2-yl)-1H-pyrrolo[3,2-c]pyridin-3-yl]carbonyl}pyridin-2-yl)-2(1H-tetrazol-1-yl)acetamide] |
| 6.54 | Cc1cn(CC(=O)Nc2cc(C(=O)c3cn(C(C)C)c4ccncc34)ccn2)nn1 [Example 114, 2-(4-methyl-1H-1,2,3-triazol-1-yl)-N-(4-{[1-(propan-2-yl)-1H-pyrrolo[3,2-c]pyridin-3-yl]carbonyl}pyridin-2-yl)acetamide] |
| 7.75 | CC(C)n1cc(C(=O)c2ccnc(NC(=O)Cc3ccc(F)cc3F)c2)c2cnccc21 [Example 106, 2-(2,4-difluorophenyl)-N-(4-{[1-(propan-2-yl)-1H-pyrrolo[3,2-c]pyridin-3-yl]carbonyl}pyridin-2-yl)acetamide] |
| 7.19 | CC(CO)n1cc(C(=O)c2cncc(NC(=O)Cn3cc(C(F)(F)F)nn3)c2)c2cnccc21 (single isomer, unassigned) [Example 59, N-(5-{[1-(1-hydroxypropan-2-yl)-1H-pyrrolo[3,2-c]pyridin-3-yl]carbonyl}pyridin-3-yl)-2-[4-(trifluoromethyl)-1H-1,2,3-triazol-1-yl]acetamide] |
| 6.04 | COCc1cn(CC(=O)Nc2cc(C(=O)c3cn(C(C)C)c4ccncc34)ccn2)nn1 [Example 176] |
| 6.93 | CC(C)n1cc(C(=O)c2cncc(NC(=O)Cc3coc(C4CC4)n3)c2)c2cnccc21 [Example 43, 2-(2-cyclopropyl-1,3-oxazol-4-yl)-N-(5-{[1-(propan-2-yl)-1H-pyrrolo[3,2-c]pyridin-3-yl]carbonyl}pyridin-3-yl)acetamide] |
| 7.88 | CC(C)n1cc(C(=O)c2ccnc(NC(=O)Cc3ccc(F)cc3)c2)c2cnccc21 [Example 186, 2(4-fluorophenyl)-N-(4-{[1-(propan-2-yl)-1H-pyrrolo[3,2-c]pyridin-3-yl]carbonyl}pyridin-2-yl)acetamide] |
| 7.08 | CC(C)n1cc(C(=O)c2cncc(NC(=O)Cn3cc(C4CC4)nn3)c2)c2cncc(F)c21 [Example 89, 2-(4-cyclopropyl-1H-1,2,3-triazol-1-yl)-N-(5-{[7-fluoro-1-(propan-2-yl)-1H-pyrrolo[3,2-c]pyridin-3-yl]carbonyl}pyridin-3-yl)acetamide] |
| 7.18 | CC(C)c1cn(CC(=O)Nc2cncc(C(=O)c3cn(C(C)CO)c4ccncc34)c2)nn1 (single isomer, unassigned) [Example 70, N-(5-{[1-(1-hydroxypropan-2-yl)-1H-pyrrolo[3,2-c]pyridin-3-yl]carbonyl}pyridin-3-yl)-2-[4-(propan-2-yl)-1H-1,2,3-triazol-1-yl]acetamide] |
| 7.05 | CC(CO)n1cc(C(=O)c2cncc(NC(=O)Cc3ccc(Cl)cn3)c2)c2cnccc21 (single isomer, unassigned) [Example 73, 2-(5-chloropyridin-2-yl)-N-(5-{[1-(1-hydroxypropan-2-yl)-1H-pyrrolo[3,2-c]pyridin-3-yl]carbonyl}pyridin-3-yl)acetamide] |
| 7.00 | CC(C)n1cc(C(=O)c2cncc(NC(=O)Cc3ccc(C#N)cn3)c2)c2cnccc21 [Example 139, 2-(5-cyanopyridin-2-yl)-N-(5-{[1-(propan-2-yl)-1H-pyrrolo[3,2-c]pyridin-3-yl]carbonyl}pyridin-3-yl)acetamide] |
| 7.54 | CC(C)n1cc(C(=O)c2cncc(NC(=O)Cn3cc(C(F)(F)F)nn3)c2)c2cncc(F)c21 [Example 87, N-(5-{[7-fluoro-1-(propan-2-yl)-1H-pyrrolo[3,2-c]pyridin-3-yl]carbonyl}pyridin-3-yl)-2-[4-(trifluoromethyl)-1H-1,2,3-triazol-1-yl]acetamide] |
| 7.29 | Cc1nc(CC(=O)Nc2cc(C(=O)c3cn(C(C)C)c4ccncc34)ccn2)c(C2CC2)o1 [Example 174, 2(5-cyclopropyl-2-methyl-1,3-oxazol-4-yl)-N-(4-{[1-(propan-2-yl)-1H-pyrrolo[3,2-c]pyridin-3-yl]carbonyl}pyridin-2-yl)acetamide] |

Reference: patent publication US9163021B2, “Pyrrolo[3,2-c]pyridine tropomyosin-related kinase inhibitors” (Pfizer Limited, priority 2012, dated 2015)
